One may read the pKa as the negative logarithm of the acid dissociation constant.

Results on 45 compounds are retold here after US7417048B2, “Aryl-substituted derivatives of cycloalkyl and branched chain alkyl carboxylic acids useful as antinociceptive drugs for peripheral targets” (priority 2003, dated 2008).

T2 sequence (Q7Z2W7 whole entry): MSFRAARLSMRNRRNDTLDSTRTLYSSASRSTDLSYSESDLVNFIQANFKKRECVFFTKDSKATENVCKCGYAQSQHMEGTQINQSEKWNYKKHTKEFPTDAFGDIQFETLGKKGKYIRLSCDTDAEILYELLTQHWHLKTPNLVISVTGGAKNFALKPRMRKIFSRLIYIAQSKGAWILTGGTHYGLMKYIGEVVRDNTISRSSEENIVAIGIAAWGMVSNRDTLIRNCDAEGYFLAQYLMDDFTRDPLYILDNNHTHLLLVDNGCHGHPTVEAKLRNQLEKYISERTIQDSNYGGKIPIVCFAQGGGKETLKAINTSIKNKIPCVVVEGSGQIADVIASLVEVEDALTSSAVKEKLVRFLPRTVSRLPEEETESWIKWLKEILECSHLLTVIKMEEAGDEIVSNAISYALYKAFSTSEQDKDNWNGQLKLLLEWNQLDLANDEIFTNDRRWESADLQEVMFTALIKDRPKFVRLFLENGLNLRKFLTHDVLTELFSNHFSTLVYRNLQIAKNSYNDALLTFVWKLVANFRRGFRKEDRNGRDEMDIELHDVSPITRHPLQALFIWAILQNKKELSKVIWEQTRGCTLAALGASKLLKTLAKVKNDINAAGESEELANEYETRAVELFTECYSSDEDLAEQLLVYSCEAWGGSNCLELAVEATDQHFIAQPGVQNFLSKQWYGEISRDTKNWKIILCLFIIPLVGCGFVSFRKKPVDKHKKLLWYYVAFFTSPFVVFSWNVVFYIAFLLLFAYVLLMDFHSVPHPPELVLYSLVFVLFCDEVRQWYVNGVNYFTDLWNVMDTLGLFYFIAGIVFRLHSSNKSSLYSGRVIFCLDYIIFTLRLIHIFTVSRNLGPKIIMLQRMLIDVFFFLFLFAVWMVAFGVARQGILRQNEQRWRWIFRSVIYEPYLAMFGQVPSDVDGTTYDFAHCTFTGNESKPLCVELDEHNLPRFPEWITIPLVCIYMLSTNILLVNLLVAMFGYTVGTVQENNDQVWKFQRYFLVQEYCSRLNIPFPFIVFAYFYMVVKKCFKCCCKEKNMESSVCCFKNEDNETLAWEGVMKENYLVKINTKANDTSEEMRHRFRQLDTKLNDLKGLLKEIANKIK

One data set has as its system tongue of the test subject. Kind of data set: Cold sensation threshold on tongue, impregnated filter paper. The format is in vivo, human. As to conditions: filter paper 1 × 1 cm on tongue, 30 sec, presence or absence of cooling effect.
Turning to `CC1CCC(C(C)C)C(C(=O)Nc2ccc(Cl)cc2)C1` (centres unmarked) [N-(4′-chlorophenyl)-2-isopropyl-5-methylcyclohexanecarboxamide], the “Cold Sensation Threshold on Tongue” value is 8 µg. For `CCOC(=O)c1ccc(NC(=O)C2CC(C)CCC2C(C)C)cc1` (centres unmarked) [N-(4′-ethoxycarbonylphenyl)-2-isopropyl-5-methylcyclohexanecarboxamide], the “Cold Sensation Threshold on Tongue” value was 5 µg. As for `CC1CCC(C(C)C)C(C(=O)Nc2ccc(F)cc2)C1` (centres unmarked) [N-(4′-fluorophenyl)-2-isopropyl-5-methylcyclohexanecarboxamide], the “Cold Sensation Threshold on Tongue” value worked out at 0.5 µg. On to `CC1CCC(C(C)C)C(C(=O)Nc2ccc(O)cc2)C1` (centres unmarked) [N-(4′-hydroxyphenyl)-2-isopropyl-5-methylcyclohexanecarboxamide], for which the “Cold Sensation Threshold on Tongue” value is 1 µg. Consider `COc1ccc(NC(=O)C2(C(C)C)CCCCCC2)c(C)c1` [N-(4′-methoxy-2′-methylphenyl)-1-isopropylcycloheptanecarboxamide], for which the “Cold Sensation Threshold on Tongue” value came to 0.2 µg. Regarding `COc1ccc(NC(=O)C2CC3CCC2(C)C3(C)C)cc1` (centres unmarked) [N-(4′-methoxyphenyl)-1,7,7-trimethylbicyclo[2.2.1]heptane-2-carboxamide], the “Cold Sensation Threshold on Tongue” value is 8 µg. Still for that read-out and setting: in the case of `CCC1(C(=O)Nc2ccc(OC)cc2)CCCCCC1C` (centres unmarked) [N-(4′-methoxyphenyl)-1-ethyl-2-methylcycloheptanecarboxamide] it was 6 µg.

Take `COc1ccc(NC(=O)C(C)(C(C)C)C(C)C)cc1` [N-(4′-methoxyphenyl)-2-isopropyl-2,3-dimethylbutyramide]: the “Cold Sensation Threshold on Tongue” value was determined as 0.5 µg.

In the case of `COc1ccc(NC(=O)C(C)(CC(C)C)C(C)C)cc1` (centres unmarked) [N-(4′-methoxyphenyl)-2-isopropyl-2,4-dimethylpentanamide], the “Cold Sensation Threshold on Tongue” value was found to be 2 µg. Regarding `COc1ccc(NC(=O)C2CC(C)CCC2C(C)C)cc1` (centres unmarked) [N-(4′-methoxyphenyl)-2-isopropyl-5-methylcyclohexanecarboxamide], the “Cold Sensation Threshold on Tongue” value stood at 0.1 µg. As for `COc1ccc(NC(=O)C2C3CCC(C3)C2(C)C)cc1` (centres unmarked) [N-(4′-methoxyphenyl)-3,3-dimethylbicyclo[2.2.1]heptane-2-carboxamide], the “Cold Sensation Threshold on Tongue” value amounted to 20 µg. Turning to `COc1ccc(NC(=O)C2C3C=CC(C3)C2CC(C)C)cc1` (centres unmarked) [N-(4′-methoxyphenyl)-3-isobutylbicyclo[2.2.1]hept-5-ene-2-carboxamide], the “Cold Sensation Threshold on Tongue” value was 4 µg. With `COc1ccc(NC(=O)C2C3CCC(C3)C2C(C)C)cc1` (centres unmarked) [N-(4′-methoxyphenyl)-3-isopropylbicyclo[2.2.1]heptane-2-carboxamide], the “Cold Sensation Threshold on Tongue” value stood at 15 µg. Same read-out and setting: to `CC1CCC(C(C)C)C(C(=O)Nc2ccc([N+](=O)[O-])cc2)C1` (centres unmarked) [N-(4′-nitrophenyl)-2-isopropyl-5-methylcyclohexanecarboxamide] belongs 0.3 µg.

As for `CC1CCC(C(C)C)C(C(=O)Nc2ccccc2)C1` (centres unmarked) [N-phenyl-2-isopropyl-5-methylcyclohexanecarboxamide], the “Cold Sensation Threshold on Tongue” value turned out to be 20 µg. Still for that read-out and setting: in the case of `CC1CCC(C(C)C)C(C(=O)NCc2ccccc2)C1` (centres unmarked) [N-phenylmethyl-2-isopropyl-5-methylcyclohexanecarboxamide] it was 20 µg.

Another data set relates to lips and nasal mucous membranes. Put plainly: Cooling effect of suspension applied to lips and nasal mucous membranes. It counts as in vivo, human. As to conditions: 20 mg/ml suspension in saline-10% Tween 80, lips and nasal mucous membranes. From the text: Sulfadiazine is used as antibiotic for urinary tract infections and its silver salt is also used a topical antibiotic for the treatment of burn wounds. One peripheral antinociceptive compound of this discovery is derived from sulfadiazine as the -ZR″ group, and has the structure illustrated by Formula 3. […] The embodiment, coded as CPS-125, also activated the TRP-M8 coolness receptor, but not TRP-A1. […] Sulfonamides are used as topical and systemic antibiotics. Generally, these drugs are used at doses of 500 mg to gram quantities, and have relatively low toxic side effects except for the risks of renal crystalluria and drug hypersensitivity reactions. […] (St. Louis, Mo.) and coupled to p-menthoyl chloride, using the chemical synthesis described above. Each compound was then tested at 20 mg/ml on the lips and nasal mucous membranes. The compounds were added to sterile saline-10% Tween 80 mixture and stirred using a glass rod until the mixture was a homogeneous suspension. Using a clean glass rod, the suspension was first applied to the lips and nasal vestibule. After this trial, a dropper was used to apply the suspension into the nostrils, at a volume of 0.06 ml in 2 droplets per nostril.
Consider `CC1CCC(C(C)C)C(C(=O)Nc2ccc(S(N)(=O)=O)cc2)C1` (centres unmarked) [CPS-126], for which the “cooling effect on the lips and on breathing sensation” value is “inactive”. Consider `COc1cc(NS(=O)(=O)c2ccc(NC(=O)C3CC(C)CCC3C(C)C)cc2)nc(OC)n1` (centres unmarked) [sulfadimethoxine analog], for which the “cooling effect on the lips and on breathing sensation” value is “slightly active”. Take `COc1cnc(NS(=O)(=O)c2ccc(NC(=O)C3CC(C)CCC3C(C)C)cc2)nc1` (centres unmarked) [sulfameter analog]: the “cooling effect on the lips and on breathing sensation” value is “moderate activities”. Take `COc1ccc(NS(=O)(=O)c2ccc(NC(=O)C3CC(C)CCC3C(C)C)cc2)nn1` (centres unmarked) [sulfamethoxypyridazine analog]: the “cooling effect on the lips and on breathing sensation” value is “moderate activities”.

`Cc1noc(NS(=O)(=O)c2ccc(NC(=O)C3CC(C)CCC3C(C)C)cc2)c1C` (centres unmarked) [sulfisoxazole analog]: the “cooling effect on the lips and on breathing sensation” value is given as “slightly active”.

Test system in another data set: not listed separately
Kind of data set: Threshold cooling effect of p-menthane carboxylic acid esters. It counts as in vivo, human. As to conditions: p-menthane-COOR esters. An excerpt:
Neurophysiological and Molecular Mechanisms of Drug Action. The procedures described previously are used in drug screening. Experimentally there are additional methods to identify peripheral antinociceptive pharmacophore-compounds on sensory nerve endings. TRP receptors are present in sensory neurons. At the molecular level, the interactions of these peripheral antinociceptive pharmacophore-compounds with various TRP receptors can be characterized. The methods for such receptor studies were described by Laus et al. (Prostate tumor nucleotide compositions and methods of detection thereof. U.S. Pat. No. 6,194,152 B1, Feb. 27, 2001), and by Bevan et al. (Vanilloid receptor-related nucleic acids and polypeptides. U.S. 2003/0157633 A1, Aug. 21, 2003) and Julius et al. (Methods of modulating cold sensory perception. U.S. 2003/0219834 A1, Nov. 27, 2003), herein incorporated by reference. In the patent by Laus et al. it is noted that activation of trp-p8 by specific agonists of this receptor may also be utilized for the treatment of prostate disorders such prostate neoplasia. The use of peripheral antinociceptive pharmacophore-compounds of this discovery for prostate disorders is also contemplated in the present patent application. Identification of Pharmacophore. […] Based on this information, the pharmacophore precursor was selected and then the -ZR″ moiety was placed on the molecule to form the peripheral antinociceptive pharmacophore compounds of this discovery with desired pharmacokinetics and adequate delivery of pharmacophore to the target.
For the compound `CC1(C)OCC(CO)O1` (centres unmarked), the “Threshold Cooling Effect” value is 11 µg. With `CC(=O)OCCOC(=O)C1CC(C)CCC1C(C)C` (centres unmarked) [2-acetoxoyethanol], the “Threshold Cooling Effect” value turned out to be 33 µg. Same read-out and setting: in the case of `CC(C)(O)C(=O)O` [2-hydroxy-2-methylpropanoic acid] it was 20 µg; in that of `Cc1cc(O)cc(O)c1` [3,5-dihydroxytoluene], 15 µg; in that of `OCCCCO` [butan-1,4-diol], 12 µg.

For `CC(O)C(C)O` (centres unmarked) [butan-2,3-diol], the “Threshold Cooling Effect” value worked out at 3 µg. As to `OCC#CCO` [butyn-1,4-diol], the “Threshold Cooling Effect” value was determined as 6 µg. Consider `OC1CCCCC1O` (centres unmarked) [cyclohexan-1,2-diol], for which the “Threshold Cooling Effect” value is 4 µg. On to `OCCOCCO` [diethylene glycol], for which the “Threshold Cooling Effect” value amounted to 1 µg.

For the compound `CCOC(=O)C(C)O` (centres unmarked) [ethyl lactate], the “Threshold Cooling Effect” value came to 50 µg. For `OCCO` [ethylene glycol], the “Threshold Cooling Effect” value was determined as 1.5 µg. As for `OCC(O)CO` [glycerol], the “Threshold Cooling Effect” value turned out to be 1.2 µg. Regarding `CC1CCC(C(C)C)C(C(=O)OCC(=O)O)C1` (centres unmarked) [glycollic acid], the “Threshold Cooling Effect” value was 15 µg. The same measure, in the same setting: in the case of `CC(O)C(=O)O` (centres unmarked) [lactic acid] it was 8 µg; in that of `OCCCO` [propan-1,3-diol], 7 µg; in that of `CC(O)CO` (centres unmarked) [propylene glycol], 1.4 µg. With `OC[C@@H](O)[C@@H](O)[C@H](O)[C@@H](O)CO` [sorbitol], the “Threshold Cooling Effect” value came out at 50 µg. On to `OCCOCCOCCO` [triethylene glycol], for which the “Threshold Cooling Effect” value was 5 µg. With hexylene glycol, the “Threshold Cooling Effect” value stood at 8 µg.

In a further data set the target is T1, mouse TRP-M8 receptor (Mus musculus, UniProt Q8R4D5).
T1 construct: expressed in transfected cells; host or cells: human embryonic kidney cells (transient transfection)
T1 sequence (Q8R4D5 whole entry): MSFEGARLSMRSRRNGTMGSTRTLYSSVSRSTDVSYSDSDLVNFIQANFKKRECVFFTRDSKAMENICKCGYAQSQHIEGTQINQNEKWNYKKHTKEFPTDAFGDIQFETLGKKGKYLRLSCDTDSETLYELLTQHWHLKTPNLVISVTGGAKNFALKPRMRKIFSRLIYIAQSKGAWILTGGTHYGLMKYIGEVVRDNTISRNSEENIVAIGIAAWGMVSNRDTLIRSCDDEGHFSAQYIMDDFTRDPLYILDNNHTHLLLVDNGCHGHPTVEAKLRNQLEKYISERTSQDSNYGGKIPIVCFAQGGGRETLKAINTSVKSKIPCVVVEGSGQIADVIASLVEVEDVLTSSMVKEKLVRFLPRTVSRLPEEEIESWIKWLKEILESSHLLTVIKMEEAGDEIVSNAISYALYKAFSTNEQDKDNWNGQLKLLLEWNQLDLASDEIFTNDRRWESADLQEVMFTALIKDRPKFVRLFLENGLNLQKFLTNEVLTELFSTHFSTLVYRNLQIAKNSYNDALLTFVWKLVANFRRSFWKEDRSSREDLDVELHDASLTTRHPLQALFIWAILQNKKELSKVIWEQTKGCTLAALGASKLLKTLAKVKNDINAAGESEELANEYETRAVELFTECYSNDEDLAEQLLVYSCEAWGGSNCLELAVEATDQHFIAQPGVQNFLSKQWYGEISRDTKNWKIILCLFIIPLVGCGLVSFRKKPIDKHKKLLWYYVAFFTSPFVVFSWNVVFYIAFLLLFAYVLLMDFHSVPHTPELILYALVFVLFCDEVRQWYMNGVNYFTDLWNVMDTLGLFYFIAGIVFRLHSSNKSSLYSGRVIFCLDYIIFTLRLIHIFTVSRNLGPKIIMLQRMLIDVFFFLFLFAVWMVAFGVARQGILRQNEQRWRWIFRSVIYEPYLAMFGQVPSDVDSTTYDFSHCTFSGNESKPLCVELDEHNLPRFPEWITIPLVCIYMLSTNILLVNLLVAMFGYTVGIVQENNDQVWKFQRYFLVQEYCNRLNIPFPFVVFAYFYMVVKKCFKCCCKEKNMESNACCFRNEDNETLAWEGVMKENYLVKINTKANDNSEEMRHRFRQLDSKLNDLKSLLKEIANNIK
Kind of data set: Voltage patch-clamp of HEK cells transiently transfected with mouse TRP-M8. Particulars: 1 μM, applied 10 sec, at least 4 cells. The format is cell-based. As for the experimental part:
Human embryonic kidney cells were transiently transfected with the gene for the mouse TRP-M8 receptor. These cells were then voltage patch-clamped in a standard microscopic apparatus and the test solution electronically applied for 10 sec. The integrated areas of the inward current, measured in picoAmperes were then recorded. Icilin a standard cooling antinociceptive agent was used the positive control. Test substances were applied at 1 μM to at least 4 cells and the current recorded.
A general note: In patch-clamp work, channel activity is measured electrically.
As to `CC1CCC(C(C)C)C(C(=O)Nc2ccc(S(N)(=O)=O)cc2)C1` (centres unmarked) [CPS-126], the “activity relative to icilin (integrated inward current, icilin as 100)” value was 2%.

Another data set has as its target T2, human TRP-M8 receptor (Homo sapiens, UniProt Q7Z2W7).
T2 construct: expressed in transfected cells; host or cells: human embryonic kidney cells (permanent transfection)
Put plainly: Fura-2 calcium fluorescence in HEK cells permanently transfected with human TRP-M8. The format is cell-based. As to conditions: Fura-2, 29 or 37° C., 96-well plate reader; read-out: EC50 (median effective concentration, calcium influx). The method, then:
Human embryonic kidney cells were permanently transfected with the gene for the human TRP-M8 receptor. These cells were then incubated with a calcium fluorescence indicator (Fura-2) and incubated at either 29 or 37° C. These cells were then distributed into a 96-well fluorescence-plate image reader with automated drug dilution and computerized software for dose-response analysis. The influx of calcium upon drug stimulated was quantified in fluorescence units.
Take `COc1cc(NS(=O)(=O)c2ccc(NC(=O)C3CC(C)CCC3C(C)C)cc2)nc(OC)n1` (centres unmarked) [sulfadimethoxine analog]: the EC50 amounted to 60 µM.

Test system in another data set: not given
Assay: not given
Particulars: cited from earlier work.
Consider `Nc1ccc(S(=O)(=O)NC(=O)CCl)cc1` [N1-chloroacetylsulfanilamide], for which the pKa is 3.79.

As to `Nc1ccc(C(=O)NS(=O)(=O)c2ccc(N)cc2)cc1` [N1-p-aminobenzoylsulfanilamide], the pKa is 5.20.

On to `Nc1ccc(S(=O)(=O)Nc2nncs2)cc1` [S-1,3,4-thiadiazole], for which the pKa is given as 4.77. `Nc1ccc(S(=O)(=O)Nc2ccccn2)cc1` [sulfapyridine]: the pKa is 8.43. In the case of `Nc1ccc(S(=O)(=O)Nc2nccs2)cc1` [sulfathiazole], the pKa is reported as 7.12.
